These molecules were tested against Dihydroorotate dehydrogenase (quinone), mitochondrial (Homo sapiens, UniProt Q02127) (assay: Method for Testing Activities of Compounds at Enzyme Level: Principles of activity test at enzyme level: firstly, dihydroorotate (DHO) is oxidatively dehydrogenated by DHODH to form orotic acid (Orotate, OA), accompanied by reduction of Flavin mononucleotide (FMN) into reduced flavin mononucleotide (FMNH2) by accepting 2H+ and 2e−, then coenzyme Q (CoQ) as hydrogen acceptor accepting electron and proton from FMNH2 is reduced into reduced coenzyme Q (CoQH2), reduced coenzyme Q transfers electrons to a chromogenic substrate, […] (DCIP), and finally DCIP was reduced. […] The degree to which the substrate DHO is oxidized can be judged based on the degree of decrease in absorbance. The degree of oxidation of the substrate DHO per unit time is the initial rate of the enzymatic reaction. […] Substrate DHO was added to start the reaction with a DHO final concentration of 500 μM. The absorbance was read at 600 nm using a BioTek microplate reader and read every 30 s for 6 min. […] For calculating IC50 of a compound, Origin 8.0 was used to test the inhibition rate at least 8 concentrations.).
Assay type: single protein

Chain of Dihydroorotate dehydrogenase (quinone), mitochondrial (Q02127 whole entry): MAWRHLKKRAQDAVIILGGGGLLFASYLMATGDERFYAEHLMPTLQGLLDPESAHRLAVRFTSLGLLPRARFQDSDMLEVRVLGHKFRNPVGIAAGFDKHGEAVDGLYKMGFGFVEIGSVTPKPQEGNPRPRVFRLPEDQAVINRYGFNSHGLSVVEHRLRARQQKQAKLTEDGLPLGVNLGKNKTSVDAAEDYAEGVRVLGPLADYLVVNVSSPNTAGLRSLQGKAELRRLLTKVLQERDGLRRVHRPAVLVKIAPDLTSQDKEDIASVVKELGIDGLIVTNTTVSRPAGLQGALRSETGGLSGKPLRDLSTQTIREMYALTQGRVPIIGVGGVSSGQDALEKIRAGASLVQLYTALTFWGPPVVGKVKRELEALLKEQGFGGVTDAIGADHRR

Compound | IC50 [µM]
CN(/N=C/c1ccccc1C(=O)OCCc1ccccc1)c1nc(-c2ccccc2Cl)cs1 | > 50
Cc1sc(N(C)/N=C/c2ccccc2C(=O)O)nc1-c1ccccc1Cl | 0.0355
O=C(OCCc1ccccc1)c1ccccc1/C=N/Nc1nc(-c2ccccc2Cl)cs1 | > 50

— ChEMBL document CHEMBL5728275 (2021)
